In patent US12258337B2, “Bicyclic CX3CR1 receptor agonists” (Board of Regents, The University of Texas System, priority 2019, dated 2025):

Tested on: THP-1 cell adhesion to HepG2 cells
Test: CX3CR1-dependent THP-1 cell adhesion to HepG2 cells
Format: cell-based
Conditions: THP-1 pre-treated with compound 30 min, FIG. 1
Protocol: CX3CR1 Agonists Prevent CX3CR1-Dependent THP-1 Cell Adhesion to HepG2 Cells
This assay measures the adhesion of THP-1 monocytes, which constitutively express CX3CR1, to HepG2 cells, a fractalkine-expressing cell line. Briefly, HepG2 cells were seeded at 80,000 cells per well in 96-well plates and allowed to form a monolayer overnight. The following day, THP-1 cells (at 2×10^6 cells/mL) were fluorescently labeled with Calcein-AM (5 μM) and pre-treated with compound at the doses indicated for 30 min. Labeled THP-1 cells were subsequently seeded (50,000/well) into the HepG2-containing plates and incubated for 30 min before imaging for Calcein-AM signal on the INCell Analyzer Imaging System. After four washes, the plates were imaged once again to calculate THP-1 cell adhesion, as measured by the percentage of cells remaining on the plates. […] These agonists behave as functional antagonists in the cell adhesion assay by blocking the interaction between CX3CR1 and fractalkine.

| Structure (SMILES) | THP-1 cell adhesion to HepG2 cells |
| --- | --- |
| CN(C)CC1(CNC(=O)c2cc3c(s2)CCCCCC3)CCCC1 [Example 2, N-[[1-[(dimethylamino)methyl]cyclopentyl]methyl]-4,5,6,7,8,9-hexahydrocycloocta[b]thiophene-2-carboxamide] | prevented THP-1 adhesion to HepG2 cells in a dose-dependent manner |
| CC(C)(CNC(=O)c1cc2c(s1)CCCCCC2)CN1CCCC1 [Example 1, N-(2,2-dimethyl-3-pyrrolidin-1-ylpropyl)-4,5,6,7,8,9-hexahydrocycloocta[b]thiophene-2-carboxamide] | prevented THP-1 adhesion to HepG2 cells in a dose-dependent manner |
